Assay [1] deals with T1, Somatostatin receptor type 5 (Rattus norvegicus, UniProt P30938).
T1 sequence (P30938 whole entry): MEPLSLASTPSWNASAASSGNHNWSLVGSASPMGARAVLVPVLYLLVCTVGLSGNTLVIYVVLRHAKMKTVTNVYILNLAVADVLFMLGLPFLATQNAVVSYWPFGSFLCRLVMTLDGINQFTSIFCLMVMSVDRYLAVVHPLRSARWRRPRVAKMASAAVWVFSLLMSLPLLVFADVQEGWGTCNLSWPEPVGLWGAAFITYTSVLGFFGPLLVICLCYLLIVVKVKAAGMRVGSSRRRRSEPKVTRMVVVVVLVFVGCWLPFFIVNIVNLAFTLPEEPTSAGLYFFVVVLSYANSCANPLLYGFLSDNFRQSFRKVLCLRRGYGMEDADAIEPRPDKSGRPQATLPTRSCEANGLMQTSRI

Assay [2] has as its target Somatostatin receptor type 2 (Rattus norvegicus, UniProt P30680).
Assay [3] addresses Somatostatin receptor type 3 (Rattus norvegicus, UniProt P30936).
The target of assay [4] is Somatostatin receptor type 1 (Rattus norvegicus, UniProt P28646).

9 molecules from BindingDB's records for PubMed 8863814 (Cyenamid Agricultural Research Center, 1996) can be followed below.

Broadly, the pKi is −log10 of the Ki, conventionally taken in molar units. Low readings indicate a large Ki, high ones a small Ki.

pKi: −log10 of the molar value. Where “and” joins values, the source holds several entries; their conditions need not be identical. Identical values can stand only once.

Sequence of Somatostatin receptor type 3 (P30936 whole entry): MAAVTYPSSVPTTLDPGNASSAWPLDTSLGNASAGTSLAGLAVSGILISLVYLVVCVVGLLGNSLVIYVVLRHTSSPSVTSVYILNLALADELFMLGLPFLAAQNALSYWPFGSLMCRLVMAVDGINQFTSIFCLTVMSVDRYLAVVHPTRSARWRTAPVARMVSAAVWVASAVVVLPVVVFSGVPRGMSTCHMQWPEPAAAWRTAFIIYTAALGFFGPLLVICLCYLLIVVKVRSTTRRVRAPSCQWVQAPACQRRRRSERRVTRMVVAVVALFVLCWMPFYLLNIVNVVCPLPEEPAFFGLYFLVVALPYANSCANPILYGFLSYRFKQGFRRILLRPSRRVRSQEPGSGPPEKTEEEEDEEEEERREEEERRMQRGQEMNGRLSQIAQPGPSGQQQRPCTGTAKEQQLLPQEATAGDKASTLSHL
Sequence of Somatostatin receptor type 1 (P28646 whole entry): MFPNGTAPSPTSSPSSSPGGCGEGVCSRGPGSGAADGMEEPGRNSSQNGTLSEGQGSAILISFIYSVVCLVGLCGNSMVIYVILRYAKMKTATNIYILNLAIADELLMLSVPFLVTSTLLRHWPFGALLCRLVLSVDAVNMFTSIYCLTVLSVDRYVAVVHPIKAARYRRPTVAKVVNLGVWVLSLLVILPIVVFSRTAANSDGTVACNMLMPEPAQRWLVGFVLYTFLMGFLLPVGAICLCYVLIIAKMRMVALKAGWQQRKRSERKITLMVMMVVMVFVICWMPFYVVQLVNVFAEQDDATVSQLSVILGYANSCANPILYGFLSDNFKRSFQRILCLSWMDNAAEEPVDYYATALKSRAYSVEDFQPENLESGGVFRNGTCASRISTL
Sequence of Somatostatin receptor type 2 (P30680 whole entry): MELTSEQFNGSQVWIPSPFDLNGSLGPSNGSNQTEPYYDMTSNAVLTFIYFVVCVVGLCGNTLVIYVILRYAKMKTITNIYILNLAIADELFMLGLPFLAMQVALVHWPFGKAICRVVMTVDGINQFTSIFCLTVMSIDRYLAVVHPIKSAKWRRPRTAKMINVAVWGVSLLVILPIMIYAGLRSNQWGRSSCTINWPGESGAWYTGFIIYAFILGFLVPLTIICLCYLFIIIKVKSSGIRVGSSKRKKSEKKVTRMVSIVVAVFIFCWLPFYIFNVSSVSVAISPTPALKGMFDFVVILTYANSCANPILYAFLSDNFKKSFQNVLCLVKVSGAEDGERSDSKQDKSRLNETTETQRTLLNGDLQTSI

As for `C[C@H](N)C(=O)NCC(=O)N[C@@H]1CSSC[C@@H](C(=O)O)NC(=O)[C@H](CO)NC(=O)[C@@H]([C@@H](C)O)NC(=O)[C@H](Cc2ccccc2)NC(=O)[C@@H]([C@@H](C)O)NC(=O)[C@H](CCCCN)NC(=O)[C@@H](Cc2c[nH]c3ccccc23)NC(=O)[C@H](Cc2ccccc2)NC(=O)[C@@H](Cc2ccccc2)NC(=O)[C@H](CC(N)=O)NC(=O)[C@@H](CCCCN)NC1=O`, the negative-log Ki (pKi) in assay [1] was 8.30. With `CC(=O)N[C@@H](Cc1ccc([N+](=O)[O-])cc1)C(=O)N[C@H]1CSSC[C@@H](C(=O)N[C@@H](Cc2ccc(O)cc2)C(N)=O)NC(=O)[C@H]([C@@H](C)O)NC(=O)[C@H](CCCCN)NC(=O)[C@@H](Cc2c[nH]c3ccccc23)NC(=O)[C@H](Cc2ccc(O)cc2)NC1=O` [AcNH-4-NO2-Phe-c[Cys-Tyr-D-Trp-Lys-Thr-Cys]-Tyr-NH2], the results for the negative-log Ki (pKi) in assay [2] and in assay [3] were 10.00 and 6.00, respectively.

Regarding `CC(=O)N[C@H](Cc1ccc([N+](=O)[O-])cc1)C(=O)N[C@H]1CSSC[C@H](C(=O)N[C@@H](C(N)=O)[C@H](C)O)NC(=O)[C@@H](C(C)C)NC(=O)[C@H](CCCCN)NC(=O)[C@@H](Cc2c[nH]c3ccccc23)NC(=O)[C@H](Cc2ccc(O)cc2)NC1=O` [AcNH-4-NO2-Phe-c[Cys-Tyr-D-Trp-Lys-Thr-Cys]-Tyr-NH2], the pKi in assay [1] is 8.66.

Regarding `CC(=O)N[C@@H](Cc1ccc([N+](=O)[O-])cc1)C(=O)N[C@@H]1CSSC[C@@H](C(=O)N[C@@H](Cc2ccc(O)cc2)C(N)=O)NC(=O)[C@H]([C@@H](C)O)NC(=O)[C@H](CCCCN)NC(=O)[C@@H](Cc2c[nH]c3ccccc23)NC(=O)[C@H](Cc2ccc(O)cc2)NC1=O` [AcNH-4-NO2-Phe-c[D-Cys-Tyr-D-Trp-Lys-Thr-Cys]-Tyr-NH2], the pKi was 6.00 in assay [4], 9.52 in assay [2] and 7.00 in assay [3]. As to `CC(=O)N[C@H](Cc1ccc([N+](=O)[O-])cc1)C(=O)N[C@@H]1CSSC[C@H](C(=O)N[C@@H](C(N)=O)[C@H](C)O)NC(=O)[C@@H](C(C)C)NC(=O)[C@H](CCCCN)NC(=O)[C@@H](Cc2c[nH]c3ccccc23)NC(=O)[C@H](Cc2ccc(O)cc2)NC1=O` [AcNH-4-NO2-Phe-c[D-Cys-Tyr-D-Trp-Lys-Thr-Cys]-Tyr-NH2], the pKi in assay [1] is 8.60. Take `CC(C)[C@@H]1NC(=O)[C@H](CCCCN)NC(=O)[C@@H](Cc2c[nH]c3ccccc23)NC(=O)[C@H](Cc2ccc(O)cc2)NC(=O)[C@@H](NC(=O)[C@@H](N)Cc2ccc([N+](=O)[O-])cc2)CSSC[C@@H](C(=O)N[C@@H](Cc2ccc(O)cc2)C(N)=O)NC1=O` [H2N-4-NO2-Phe-c[Cys-Tyr-D-Trp-Lys-Val-Cys]-Tyr-Nh2]: the pKi in assay [4] was 6.00; in assay [2], 9.70; in assay [3], 6.52. For the molecule `CC(C)[C@H]1NC(=O)[C@H](CCCCN)NC(=O)[C@@H](Cc2c[nH]c3ccccc23)NC(=O)[C@H](Cc2ccc(O)cc2)NC(=O)[C@@H](NC(=O)[C@@H](N)Cc2ccc([N+](=O)[O-])cc2)CSSC[C@H](C(=O)N[C@@H](C(N)=O)[C@H](C)O)NC1=O` [H2N-4-NO2-Phe-c[Cys-Tyr-D-Trp-Lys-Val-Cys]-Tyr-Nh2], the pKi in assay [1] is 10.00 and 9.38. For the molecule `CC(C)[C@@H]1NC(=O)[C@H](CCCCN)NC(=O)[C@@H](Cc2c[nH]c3ccccc23)NC(=O)[C@H](Cc2ccc(O)cc2)NC(=O)[C@H](NC(=O)[C@@H](N)Cc2ccc([N+](=O)[O-])cc2)CSSC[C@@H](C(=O)N[C@@H](Cc2ccc(O)cc2)C(N)=O)NC1=O` [H2N-4-NO2-Phe-c[D-Cys-Tyr-D-Trp-Lys-Val-Cys]-Tyr-Nh2], the pKi in assay [4] is 6.00; in assay [2] it was 7.89; in assay [3] it was 6.00. In the case of `CC(C)[C@H]1NC(=O)[C@H](CCCCN)NC(=O)[C@@H](Cc2c[nH]c3ccccc23)NC(=O)[C@H](Cc2ccc(O)cc2)NC(=O)[C@H](NC(=O)[C@@H](N)Cc2ccc([N+](=O)[O-])cc2)CSSC[C@H](C(=O)N[C@@H](C(N)=O)[C@H](C)O)NC1=O` [H2N-4-NO2-Phe-c[D-Cys-Tyr-D-Trp-Lys-Val-Cys]-Tyr-Nh2], the negative-log Ki (pKi) in assay [1] is 7.74.
